In patent US20230234936A1, “COMPOUND FOR TARGETING AND DEGRADING PROTEIN, AND PREPARATION METHOD THEREFOR AND USE THEREOF” (SHANGHAI LEADINGTAC PHARMACEUTICAL CO., LTD., priority 2020, published 2023):

Target: T1, IRAK4 kinase (Homo sapiens, UniProt Q9NWZ3)
T1 sequence (Q9NWZ3 1-460): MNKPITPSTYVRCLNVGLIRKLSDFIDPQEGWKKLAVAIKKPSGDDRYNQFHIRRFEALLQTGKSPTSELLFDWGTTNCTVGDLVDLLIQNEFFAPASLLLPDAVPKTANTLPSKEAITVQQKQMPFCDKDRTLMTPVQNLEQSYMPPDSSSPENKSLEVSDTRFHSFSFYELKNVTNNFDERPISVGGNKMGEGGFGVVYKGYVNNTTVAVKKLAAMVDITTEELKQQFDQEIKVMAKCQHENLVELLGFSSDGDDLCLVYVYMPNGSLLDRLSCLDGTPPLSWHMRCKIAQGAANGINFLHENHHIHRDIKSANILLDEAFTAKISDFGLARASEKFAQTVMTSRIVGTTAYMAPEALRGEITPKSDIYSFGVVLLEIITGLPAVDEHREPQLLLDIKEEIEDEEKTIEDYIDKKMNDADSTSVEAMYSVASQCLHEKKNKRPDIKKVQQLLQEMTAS
Assay: IRAK4 kinase activity test (KinEASE-STK S1 HTRF kit)
Format: biochemical
Details: 2.5 nM kinase, 1 μM biotinylated polypeptide substrate, 7 μM ATP, 37° C. 120 min
Procedure: KinEASE-STK S1 serine/threonine kinase kit (Cisbio) was used to detect the inhibitory effect of the compound on IRAK4 kinase activity. The specific method was: the compound was dissolved in dimethyl sulfoxide, and then it was diluted with the buffer solution of the kit by equal gradient to make the final concentration range of the tested compound in the reaction system 10000 nM-0.038 nM, then 2.5 nM kinase, 1 μM biotinylated polypeptide substrate and 7 μM adenosine triphosphate (ATP) were added in sequence and incubated at 37° C. for 120 min. Subsequently, anti-phosphorylated serine/threonine antibody coupled with europium element compound and modified XL665 streptavidin were added to the reaction system to terminate the reaction. After incubating at room temperature for 1 h, the fluorescence intensity of each well at the emission wavelength of 620 nm and 665 nm and the excitation wavelength of 337 nm was determined in HTRF mode on the microplate reader EnVision(PerkinElmer), the ratio value was calculated using the formula Ratio=(665 nm/620 nm)×10^4. By comparing with the fluorescence intensity ratio of the control group, the inhibition rate of the compound at each concentration was calculated, and then the IC50 value of the compound was obtained by fitting the nonlinear curve with the logarithmic concentration-inhibition rate by GraphPad Prism 7.

Structure (SMILES)	IC50
COc1cc2nn(C3CCN(CCOCCOc4ccc5c(c4)C(=O)N(C4CCC(=O)NC4=O)C5=O)CC3)cc2cc1NC(=O)c1cccc(C(F)(F)F)n1 (centres unmarked) [Control group 1, N-(2-(1-(2-(2-((2-(2,6-dioxopiperidin-3-yl)-1,3-dioxoisoindol-5-yl)oxy)ethoxy)ethyl)piperidin-4-yl)-6-methoxy-2H-indazol-5-yl)-6-(trifluoromethyl) pyridinecarboxamide, reference compound]	44.2 nM
COc1cc2nn(C3CCN(CCCCCNC(=O)c4ccc(OC)c(N5CCC(=O)NC5=O)c4)CC3)cc2cc1NC(=O)c1cccc(C(F)(F)F)n1 [Example 4, N-(2-(1-(5-(3-(2,4-dioxotetrahydropyrimidin-1 (2H)-yl)-4-methoxybenzamido)pentyl)piperidin-4-yl)-6-methoxy-2H-indazol-5-yl)-6-(trifluoromethyl) pyridinecarboxamide]	12.2 nM
COc1cc2nn(C3CCN(CCOCCNC(=O)c4ccc(OC)c(N5CCC(=O)NC5=O)c4)CC3)cc2cc1NC(=O)c1cccc(C(F)(F)F)n1 [Example 5, N-(2-(1-(2-(2-(3-(2,4-dioxotetrahydropyrim-idin-1 (2H)-yl)-4-methoxybenz-amido)ethoxy)ethyl)piperidin-4-yl)-6-me-thoxy-2H-indazol-5-yl)-6-(trifluoromethyl) pyridinecarboxamide]	9.1 nM
COc1cc2nn(C3CCN(CCOCCOCCNC(=O)c4ccc(OC)c(N5CCC(=O)NC5=O)c4)CC3)cc2cc1NC(=O)c1cccc(C(F)(F)F)n1 [Example 8, N-(2-(1-(2-(2-(2-(3-(2,4-dioxotetrahydropyrimidin-1 (2H)-yl)-4-methoxybenz-amido)ethoxy)ethoxy)ethyl)piperidin-4-yl)-6-methoxy-2H-indazol-5-yl)-6-(trifluoro-methyl) pyridin-carboxamide]	10.5 nM
COc1ccc(C(=O)N2CC3(CCN(CCN4CCC(n5cc6cc(NC(=O)c7cccc(C(F)(F)F)n7)c(C(C)(C)O)cc6n5)CC4)CC3)C2)cc1N1CCC(=O)NC1=O [Example 13, N-(2-(1-(2-(2-(3-(2,4-dioxotetrahydropyrimidin-1 (2H)-yl)-4-methoxybenzoyl)-2,7-diazaspiro [3.5]non-7-yl)ethyl)piperidin-4-yl)-6-(2-hydroxyprop-2-yl)-2H-indazol-5-yl)-6-(trifluoro-methyl) pyridinecarboxamide]	7.9 nM
COc1cc2nn(C3CCN(CCN4CCN(C(=O)c5ccc(OC)c(N6CCC(=O)NC6=O)c5)CC4)CC3)cc2cc1NC(=O)c1cccc(C(F)(F)F)n1 [Example 14, N-(2-(1-(2-(4-(3-(2,4-dioxotetrahydropyrimidin-1 (2H)-yl)-4-methoxybenzoyl)piperazin-1-yl)ethyl)piperidin-4-yl)-6-methoxy-2H-indazol-5-yl)-6-(trifluoromethyl) pyridinecarboxamide]	6.9 nM
COc1cc2nn(C3CCN(CCN4CC5(CCN(C(=O)c6ccc(OC)c(N7CCC(=O)NC7=O)c6)CC5)C4)CC3)cc2cc1NC(=O)c1cccc(C(F)(F)F)n1 [Example 15, N-(2-(1-(2-(7-(3-(2,4-dioxo-tetrahydropyrim-idin-1 (2H)-yl)-4-methoxy-benzoyl)-2,7-diazaspiro [3.5]non-2-yl)ethyl)piperidin-4-yl)-6-methoxy-2H-in-dazol-5-yl)-6-(tri-fluoromethyl) pyridinecarbox-amide]	6 nM
CCOc1ccc(C(=O)N2CCC3(CCC(CCN4CCC(n5cc6cc(NC(=O)c7cccc(C(F)(F)F)n7)c(C(C)(C)O)cc6n5)CC4)CC3)CC2)cc1N1CCC(=O)NC1=O [Example 24]	34.6 nM
CC(C)(O)c1cc2nn(C3CCN(CCCC4CCN(C(=O)c5ccc(Cl)c(N6CCC(=O)NC6=O)c5)CC4)CC3)cc2cc1NC(=O)c1cccc(C(F)(F)F)n1 [Example 29]	8.6 nM
CC(C)(O)c1cc2nn(C3CCN(CCC4CCC5(CC4)CCN(C(=O)c4ccc(OC(F)(F)F)c(N6CCC(=O)NC6=O)c4)CC5)CC3)cc2cc1NC(=O)c1cccc(C(F)(F)F)n1 [Example 37]	30.5 nM
CC(C)(O)c1cc2nn(C3CCN(CCC4CCC5(CC4)CCN(C(=O)c4ccc(C(F)(F)F)c(N6CCC(=O)NC6=O)c4)CC5)CC3)cc2cc1NC(=O)c1cccc(C(F)(F)F)n1 [Example 38, N-(2-(1-(2-(3-(3-(2,4-dioxotetrahydro-pyrimidin-1 (2H)-yl)-4-(trifluoro-methyl)benzoyl)-3-azaspiro[5.5]undec-9-yl)ethyl)piperidin-4-yl)-6-(2-hydroxyprop-2-yl)-2H-indazol-5-yl)-6-(trifluoro-methyl) pyridinecarbox-amide]	34.5 nM
COc1cc2nn([C@H]3CC[C@H](CN(C)CCC4CCN(C(=O)c5ccc(F)c(C6CCC(=O)NC6=O)c5)CC4)CC3)cc2cc1NC(=O)c1cccc(C(F)(F)F)n1 (some centres unmarked) [Example 52]	9.2 nM
COc1cc2nn(C3CCC4(CC3)CCN(CC3CCN(C(=O)c5ccc(Cl)c(N6CCC(=O)NC6=O)c5)CC3)CC4)cc2cc1NC(=O)c1cccc(C(F)(F)F)n1 [Example 57, N-(2-(3-((1-(4-chloro-3-(2,4-dioxotetrahydro-pyrimidin-1 (2H)-yl)benzoyl)piperidin-4-yl)methyl)-3-azaspiro [5.5]undec-9-yl)-6-methoxy-2H-inda-zol-5-yl)-6-(triflu-oromethyl) pyridinecarbox-amide]	3.8 nM
COc1cc2nn([C@H]3CC[C@@H](N4CCC5(CCN(C(=O)c6ccc(Cl)c(N7CCC(=O)NC7=O)c6)CC5)CC4)CC3)cc2cc1NC(=O)c1cccc(C(F)(F)F)n1 [Example 59, N-(2-((1s,4s)-4-(9-(4-chloro-3-(2,4-dioxotetrahydro-pyrimidin-1 (2H)-yl)benzoyl)-3,9-diazaspiro[5.5]undec-3-yl)cyclohexyl)-6-methoxy-2H-inda-zol-5-yl)-6-(trifluoro-methyl) pyridinecarbox-amide]	11 nM
O=C1CCN(c2cc(C(=O)N3CCC4(CCC(CN5CCC(n6cc7cc(NC(=O)c8cccc(C(F)(F)F)n8)c(OC(F)(F)F)cc7n6)CC5)CC4)CC3)ccc2Cl)C(=O)N1 [Example 61, N-(2-(1-((3-(4-chloro-3-(2,4-dioxotetrahydro-pyrimidin-1 (2H)-yl)benzoyl)-3-azaspiro [5.5]undec-9-yl)methyl)piperidin-4-yl)-6-(trifluoromethoxy)-2H-indazol-5-yl)-6-(trifluoro-methyl) pyridinecarbox-amide]	128 nM
CN(C[C@H]1CC[C@H](n2cc3cc(NC(=O)c4cccc(C(F)(F)F)n4)c(C(C)(C)O)cc3n2)CC1)C1CCC2(CC1)CCN(C(=O)c1ccc(Cl)c(N3CCC(=O)NC3=O)c1)CC2 [Example 63]	4.4 nM

Target: T2, IRAK4 protein in THP-1 cells (Homo sapiens, UniProt Q9NWZ3)
T2 construct: endogenous in cells; host or cells: THP-1
T2 sequence (Q9NWZ3 1-460): T1 sequence (Q9NWZ3 1-460)
Assay: Degradation of IRAK4 in THP-1 cells (Western blot)
Format: cell-based
Details: 24 hours, compound 1-3000 nM
Procedure: Each well of the 24-well cell culture plate was inoculated with 0.95 mL THP-1 cells (stem cell bank of Chinese academy of sciences) with a cell density of 5×10^5 cells/well. The cell plate was placed in a 5% carbon dioxide incubator and cultured overnight at 37° C., then 50 μL compound in dimethyl sulfoxide was added. The final concentration of the compound was in the range of 1-3000 nM. After continuous cultivation for 24 hours, the cells were collected into a 1.5 mL centrifuge tube, centrifuged at 1000 rpm and 4° C. for 5 minutes. Cell precipitation was cleaned twice with 1-DPBS, resuspended cells were lysed with 200 μL lysate (cell lysate was Western and IP cell lysate (Beyotime), supplemented with 1 mM mixture of phenylmethylsulfonyl fluoride and protease inhibitor (Beyotime)), left on ice for 30 minutes, then centrifuged at 14000 g at 4° C. for 10 minutes, and the supernatant was taken to detect IRAK4 protein level by Western blot.
Western blot method: The total protein concentration in the supernatant of cell lysis was determined by BCA protein quantitative kit (Tiangen). According to the concentration of total protein detected by BCA, the supernatant was adjusted to 0.2 μg/μL with PBS and 5× SDS-PAGE protein loading buffer (Beyotime), bathed in water at 100° C. for 10 minutes, then placed in ice bath for 5 minutes, centrifuged at 14000 g and 4° C. for 5 minutes, and then collected as WB loading sample. Prefabricated glue (KeyGEN) was used for protein electrophoresis with a loading amount of 10 μL (total protein 2 μg). After Tris-MOPS-SDS electrophoresis solution (Adamas), 120V constant pressure electrophoresis was performed. After electrophoresis, the protein on the adhesive strip was transferred to PVDF membrane with a constant current of […] for 50 minutes. After the membrane was transferred, the membrane was placed in 1×QuickBlock blocking buffer (Beyotime) and incubated for 30 minutes at room temperature. After blocking, PVDF membranes were incubated with IRAK4 primary antibody (Abcam) overnight at 4°, the membranes were washed with TBST buffer (2.4 g Tris, 8.8 g NaCl, 1.5 mL Tween 20, pH adjusted to 7.4, constant volume to 1 L) for 30 minutes, incubated with secondary antibody (Abcam) for 2 hours at room temperature, finally incubated with Clarity Western ECL Substrate(BIO-RAD) for 5 minutes for luminescence development, chemiluminescence imaging system (Clinx, chemiScope 6200 Touch) for development and protein mapping photography. The protein map was analyzed by Clinx chemiluminescence analysis software for grayscale values. Using the formula: grayscale correction value=(target protein grayscale value/corresponding internal reference grayscale value)×10^3, the grayscale correction value of each sample was calculated. The degradation rate was calculated by comparing with the grayscale correction value of the control group. Furthermore, DC50 and Dmax values of the compound were obtained by the nonlinear curve fitting with the logarithmic concentration-inhibition rate by GraphPad Prism 7.

Structure (SMILES)	DC50
COc1cc2nn(C3CCN(CCOCCOc4ccc5c(c4)C(=O)N(C4CCC(=O)NC4=O)C5=O)CC3)cc2cc1NC(=O)c1cccc(C(F)(F)F)n1 (centres unmarked) [Control group 1, N-(2-(1-(2-(2-((2-(2,6-dioxopiperidin-3-yl)-1,3-dioxoisoindol-5-yl)oxy)ethoxy)ethyl)piperidin-4-yl)-6-methoxy-2H-indazol-5-yl)-6-(trifluoromethyl) pyridinecarboxamide, reference compound]	38.1 nM
